Molecules are shown by their SMILES. Calls of active or inactive are those of the source. No cut-off for these calls is given here. Where only a bound is given, the exact number is not on record here.

Series [1] addresses T1, Muscarinic acetylcholine receptor M4 (Homo sapiens, UniProt P08173).
T1 sequence (P08173 whole entry): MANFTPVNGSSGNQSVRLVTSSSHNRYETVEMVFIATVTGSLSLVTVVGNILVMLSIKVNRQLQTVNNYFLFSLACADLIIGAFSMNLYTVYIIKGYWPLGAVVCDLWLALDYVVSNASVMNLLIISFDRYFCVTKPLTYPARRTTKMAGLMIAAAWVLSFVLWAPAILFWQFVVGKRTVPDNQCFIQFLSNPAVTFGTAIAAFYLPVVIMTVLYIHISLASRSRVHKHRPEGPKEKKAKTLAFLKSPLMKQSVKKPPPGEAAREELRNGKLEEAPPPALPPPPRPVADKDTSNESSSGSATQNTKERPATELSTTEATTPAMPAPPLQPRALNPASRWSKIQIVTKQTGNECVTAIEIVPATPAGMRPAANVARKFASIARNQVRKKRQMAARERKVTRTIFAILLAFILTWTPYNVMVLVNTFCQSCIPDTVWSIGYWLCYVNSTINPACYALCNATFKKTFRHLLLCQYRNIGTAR
Briefly: Agonist activity at human muscarinic M4 receptor expressed in CHO cells co-expressing Gqi5 chimeric G-protein assessed as effect on calcium mobilization by FLIPR assay. The format is functional, cell-based. (In general: A change in cytosolic calcium serves as a functional read-out for many receptors and channels.)

The target in series [2] is Muscarinic acetylcholine receptor M3 (Homo sapiens, UniProt P20309). Briefly: Agonist activity at human muscarinic M3 receptor expressed in CHO cells assessed as effect on calcium mobilization by FLIPR assay. The format is functional, cell-based.
Sequence of Muscarinic acetylcholine receptor M3 (P20309 whole entry): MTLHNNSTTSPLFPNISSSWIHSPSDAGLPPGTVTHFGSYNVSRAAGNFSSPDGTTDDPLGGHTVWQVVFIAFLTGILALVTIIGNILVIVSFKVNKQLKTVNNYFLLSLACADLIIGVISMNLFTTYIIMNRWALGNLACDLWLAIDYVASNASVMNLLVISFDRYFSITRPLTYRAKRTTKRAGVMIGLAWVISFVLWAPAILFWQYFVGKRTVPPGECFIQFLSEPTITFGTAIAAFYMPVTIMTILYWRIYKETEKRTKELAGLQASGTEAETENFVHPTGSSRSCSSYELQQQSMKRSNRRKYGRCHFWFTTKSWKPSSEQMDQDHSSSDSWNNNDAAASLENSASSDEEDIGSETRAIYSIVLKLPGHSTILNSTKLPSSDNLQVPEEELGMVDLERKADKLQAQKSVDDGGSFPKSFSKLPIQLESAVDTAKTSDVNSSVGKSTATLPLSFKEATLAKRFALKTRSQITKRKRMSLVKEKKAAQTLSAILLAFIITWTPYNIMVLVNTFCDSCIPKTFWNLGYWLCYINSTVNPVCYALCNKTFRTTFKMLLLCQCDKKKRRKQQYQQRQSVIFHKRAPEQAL
The target in series [3] is T2, Muscarinic acetylcholine receptor M1 (Homo sapiens, UniProt P11229).
T2 sequence (P11229 whole entry): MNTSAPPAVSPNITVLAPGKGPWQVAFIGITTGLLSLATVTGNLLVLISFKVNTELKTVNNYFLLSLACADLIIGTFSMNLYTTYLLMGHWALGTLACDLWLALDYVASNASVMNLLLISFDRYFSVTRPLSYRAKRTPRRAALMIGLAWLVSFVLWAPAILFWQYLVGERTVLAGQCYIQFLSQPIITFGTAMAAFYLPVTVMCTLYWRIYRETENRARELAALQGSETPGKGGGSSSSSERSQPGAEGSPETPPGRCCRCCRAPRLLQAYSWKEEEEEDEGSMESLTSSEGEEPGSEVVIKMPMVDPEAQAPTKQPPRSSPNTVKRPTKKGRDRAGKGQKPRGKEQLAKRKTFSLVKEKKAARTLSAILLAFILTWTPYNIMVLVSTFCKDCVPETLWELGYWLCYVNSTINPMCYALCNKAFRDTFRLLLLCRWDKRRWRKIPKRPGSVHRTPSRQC
Briefly: Agonist activity at human muscarinic M1 receptor expressed in CHO cells assessed as effect on calcium mobilization by FLIPR assay. It counts as functional, cell-based.

For series [4], the target named is T3, Muscarinic acetylcholine receptor M5 (Homo sapiens, UniProt P08912).
T3 sequence (P08912 whole entry): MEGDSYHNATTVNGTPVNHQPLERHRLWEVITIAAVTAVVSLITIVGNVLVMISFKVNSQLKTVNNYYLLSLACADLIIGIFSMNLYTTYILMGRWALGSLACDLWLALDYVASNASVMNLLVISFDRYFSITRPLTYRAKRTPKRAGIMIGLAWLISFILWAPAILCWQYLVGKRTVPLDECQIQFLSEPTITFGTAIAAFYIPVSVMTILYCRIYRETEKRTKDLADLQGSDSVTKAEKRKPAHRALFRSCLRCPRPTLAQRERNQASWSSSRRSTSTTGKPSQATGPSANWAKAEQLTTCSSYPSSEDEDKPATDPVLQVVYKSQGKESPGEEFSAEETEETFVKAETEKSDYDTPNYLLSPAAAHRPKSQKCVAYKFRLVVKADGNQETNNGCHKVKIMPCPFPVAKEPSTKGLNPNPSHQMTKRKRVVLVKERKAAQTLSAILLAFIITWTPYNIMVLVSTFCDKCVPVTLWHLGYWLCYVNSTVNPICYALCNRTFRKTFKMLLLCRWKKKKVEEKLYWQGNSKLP
Nature of the series: Agonist activity at human muscarinic M5 receptor expressed in CHO cells assessed as effect on calcium mobilization by FLIPR assay. It counts as functional, cell-based.

Series [5] addresses T4, Muscarinic acetylcholine receptor M2 (Homo sapiens, UniProt P08172).
T4 sequence (P08172 whole entry): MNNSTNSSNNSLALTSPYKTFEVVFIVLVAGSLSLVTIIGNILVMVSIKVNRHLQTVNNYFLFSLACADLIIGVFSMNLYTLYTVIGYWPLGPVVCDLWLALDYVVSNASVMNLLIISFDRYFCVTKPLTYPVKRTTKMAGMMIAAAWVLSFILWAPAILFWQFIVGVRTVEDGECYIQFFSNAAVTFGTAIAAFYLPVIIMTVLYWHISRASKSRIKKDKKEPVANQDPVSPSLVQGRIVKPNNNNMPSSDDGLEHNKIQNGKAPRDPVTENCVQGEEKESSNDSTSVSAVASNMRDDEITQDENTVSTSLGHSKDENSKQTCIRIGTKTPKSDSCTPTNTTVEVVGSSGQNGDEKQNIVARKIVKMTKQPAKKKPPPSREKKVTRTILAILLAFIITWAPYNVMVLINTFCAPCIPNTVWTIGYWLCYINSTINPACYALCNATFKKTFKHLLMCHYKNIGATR
Nature of the series: Agonist activity at human muscarinic M2 receptor expressed in CHO cells co-expressing Gqi5 chimeric G-protein assessed as effect on calcium mobilization by FLIPR assay. It counts as functional, cell-based.

Series [6] is described as follows: Ratio of drug level in brain to blood in rat at 3 mg/kg, po. The format is ADME, organism-based. More on the design: dose 3 mg/kg, route oral.
A short description of series [7]: Drug level in rat whole blood assessed as tissue binding. It counts as ADME, tissue-based.
Series [8] has as its system Brain. Nature of the series: Drug level in rat brain assessed as tissue binding. The format is ADME, tissue-based.
The nature of series [9]: Clearance in rat blood at 3 mg/kg, po. The format is ADME, organism-based. More on the design: dose 3 mg/kg, route oral.
The nature of series [10]: Inhibition of sigma receptor at 10 uM.
The species named for series [11] is Rattus norvegicus. Nature of the series: Cognitive enhancing effect in rat assessed as reversal of temporal-induced memory deficit by novel object recognition assay. The format is functional, organism-based.
Series [12] deals with Rattus norvegicus. Briefly: Cognitive enhancing effect in rat assessed as reversal of temporal-induced memory deficit at 1 mg/kg by novel object recognition assay. More on the design: dose 1 mg/kg. The format is functional, organism-based.
Series [13] in a line: Ratio of drug level in brain to blood in rat at 1 mg/kg, iv. It counts as ADME, organism-based. More on the design: dose 1 mg/kg, route intravenous.

With `CCO[C@H]1CC[C@](C)(N2CCC(n3c(=O)oc4ccc(S(C)(=O)=O)cc43)CC2)CC1`, the EC50 in [1] was 1580 nM; in series [2], 1260 nM; in series [3] it was 12.6 nM; in [4], 1260 nM; in series [5], 2510 nM.
For the compound `CCCO[C@H]1CC[C@](C)(N2CCC(n3c(=O)oc4ccc(S(C)(=O)=O)cc43)CC2)CC1`, the EC50 is 501 nM in [1]; 3160 nM in [2]; 2.51 nM in series [3]; 316 nM in series [4]; 794 nM in [5]. The Kp in series [6] came out at 0.8. In addition, the Drug uptake in series [7] is given as 60%; in [8], 74%. This compound displayed an apparent clearance (CL/F) in series [9] of 11 mL/min/kg.
As for `CCO[C@H]1CC[C@](C)(N2CCC(n3c(=O)oc4ccccc43)CC2)CC1`, the EC50 was 126 nM in [1]; above 15800 nM in [2]; 25.1 nM in [3]; 1000 nM in series [4]; above 15800 nM in series [5].
As for `COCCO[C@H]1CC[C@](C)(N2CCC(n3c(=O)oc4ccc(C#N)cc43)CC2)CC1`, the EC50 in series [1] was 794 nM; in [2], 3980 nM; in [3], 10 nM; in series [4], 1000 nM; in series [5] it was 2510 nM. Besides, the concentration ratio (Kp) in series [6] amounted to 1.7. The same compound gave an inhibition in series [10] of 75%. The Activity entry in [11] is “Dose-dependent effect”. The Drug uptake in series [7] worked out at 42%; in series [8], 61%. Moreover, in series [9], the apparent clearance (CL/F) came out at 23 mL/min/kg. For the same compound, the outcome in series [12] was Active.
Turning to `CO[C@H]1CC[C@](C)(N2CCC(N3C(=O)Cc4ccc(C)cc43)CC2)CC1`, the EC50 in series [1] was 158 nM; in [2] it was 316 nM; in series [3], 3.16 nM; in [4], 126 nM; in [5] it was 631 nM.
For `COCCO[C@H]1CC[C@](C)(N2CCC(n3c(=O)oc4ccc(C)cc43)CC2)CC1`, in that order: 200 nM, 631 nM, 2.51 nM, 158 nM and 631 nM.
The matching figures for `CCO[C@H]1CC[C@](C)(N2CCC(n3c(=O)oc4ccc(S(=O)(=O)CC)cc43)CC2)CC1`: 1580 nM, 398 nM, 200 nM, 5010 nM and above 15800 nM.
Take `Cc1cc2c(cc1F)[nH]c(=O)n2C1CCN(C2CCOCC2)CC1`: the concentration for a half-maximal effect (EC50) was 251 nM in series [1], 2510 nM in series [2] and 5.01 nM in series [3].
As to `CCO[C@H]1CC[C@](C)(N2CCC(n3c(=O)oc4ccc(OC)cc43)CC2)CC1`, the EC50 in series [1] was 158 nM; in series [2], 1580 nM; in [3], 2.51 nM; in series [4] it was 158 nM; in [5], 398 nM.
As for `CCO[C@H]1CC[C@](C)(N2CCC(N3C(=O)Cc4ccc(C)cc43)CC2)CC1`, the concentration for a half-maximal effect (EC50) was 31.6 nM in series [1]; 126 nM in [2]; 0.398 nM in [3]; 20 nM in series [4]; 100 nM in [5].
Take `CCCO[C@H]1CC[C@](C)(N2CCC(N3C(=O)Cc4ccc(C)cc43)CC2)CC1`: the concentration giving a half-maximal response (EC50) in series [1] is 39.8 nM; in series [2], 63.1 nM; in series [3], 0.501 nM; in series [4] it was 20 nM; in series [5], 63.1 nM. Further, the Kp in series [13] was 5.7. Besides, the results for the Drug uptake in [7] and in [8] were 80% and 94%, respectively. Also, the apparent clearance (CL/F) in series [9] worked out at 85 mL/min/kg.
On to `CCCO[C@H]1CC[C@](C)(N2CCC(n3c(=O)[nH]c4cc(F)c(C)cc43)CC2)CC1`, for which the EC50 in series [1] is 12.6 nM; in series [2], 79.4 nM; in series [3] it was 0.398 nM; in [4] it was 12.6 nM; in series [5], 20 nM.
For the compound `CCO[C@H]1CC[C@](C)(N2CCC(n3c(=O)oc4ccc(C#N)cc43)CC2)CC1`, the concentration giving a half-maximal response (EC50) in series [1] was 794 nM; in series [2], 2510 nM; in series [3], 3.16 nM; in [4], 398 nM; in series [5], 2510 nM.
For `CCO[C@H]1CC[C@](C)(N2CCC(n3c(=O)oc4c(F)cc(C)cc43)CC2)CC1`, the EC50 in [1] was 200 nM; in series [2], 2000 nM; in [3], 1.26 nM; in [4], 158 nM; in series [5] it was 794 nM.
Turning to `CO[C@H]1CC[C@](C)(N2CCC(n3c(=O)oc4ccc(C)cc43)CC2)CC1`, the concentration for a half-maximal effect (EC50) in series [1] was 501 nM; in series [2] it was 2000 nM; in series [3], 7.94 nM; in series [4] it was 398 nM; in series [5] it was 1260 nM.
In the case of `CCO[C@H]1CC[C@](C)(N2CCC(n3c(=O)oc4cc(F)c(C)cc43)CC2)CC1`, the EC50 in series [1] is 100 nM; in series [2], 794 nM; in series [3], 1 nM; in [4] it was 50.1 nM; in series [5], 501 nM.

What is called EC50 is the concentration giving half of the maximal effect. As usually defined, the Kp is tissue or fluid exposure divided by exposure in the circulation. By CL/F is commonly meant clearance divided by bioavailability, as obtained after extravascular dosing. What is called inhibition is how much of the control response was suppressed.

(Values after ChEMBL document CHEMBL1221359, “The discovery of a series of N-substituted 3-(4-piperidinyl)-1,3-benzoxazolinones and oxindoles as highly brain penetrant, selective muscarinic M1 agonists” (Bioorg Med Chem Lett, 2010).)
